Consider ten molecules from patent EP4722201A1, “3-PHENYLISOXAZOLINE-5-CARBOXAMIDE COMPOUND, AND PREPARATION METHOD THEREFOR, HERBICIDAL COMPOSITION THEREOF AND USE THEREOF” (Jiangsu Flag Chemical Industry Co., Ltd, priority 2023, dated 2024).

Assay type in all cases: in vivo
The subject of assay [1] is Cyperus iria. The assay can be described thus: Indoor herbicide activity determination, post-emergence (stem and leaf spray at 2-4 leaf stage). The conditions noted are these: 504 h, determined 21 days later, read-out: Inhibition rate of fresh weight, Cyperus iria; for inhibition at 60 g/ha: 60 g a.i./ha; for inhibition at 30 g/ha: 30 g a.i./ha. An excerpt:
(§1) The testing method for herbicide activity of the compound of the present invention was as follows:
(§2) Post-emergence: an appropriate quantity of seeds of gramineous weeds (Echinochloa crusgalli, Eleusine indica, Digitaria sanguinalis, Alopecurus japonicus, Beckmannia syzigachne, Leptochloa chinensis, Polypogon fugax, Alopecurus aequalis, Lolium multiflorum, Poa annua, Aegilops tauschii, Avena fatua, Alopecurus myosuroides, Alopecurus japonicus and Alopecurus aequalis), broad-leaved weeds (Eclipta prostrata, Amaranthus retroflexus, Rorippa indica, Malachium aquaticum, Veronica polita, Conyza canadensis, Sesbania cannabina, Sagittariatrifolia and Schoenoplectiella juncoides), and Cyperus iria were sown in plastic pots having a diameter of 7 cm and holes at the bottom and filled with nutrient soil (sandy soil, pH 6.1, organic matter 1%) respectively, the seeds were covered with an appropriate amount of soil after being sown, then the soil was wetted with water from the bottom, the seeds were cultured in a constant-temperature illuminated culture room until a 2-4 leaf stage, and stems and leaves underwent spray treatment. After the treatment, the test materials were placed in a laboratory and cultured in the constant-temperature illuminated culture room after the liquid was naturally dry in the shade, and results were determined 21 days later. Inhibition rate of fresh weight % = (1−(fresh weight of treated plants)/(fresh weight of control plants)) × 100% [formula]

In assay [2] the test system is Digitaria sanguinalis. The assay is described as above. Conditions: 504 h, determined 21 days later, read-out: Inhibition rate of fresh weight, Digitaria sanguinalis; for inhibition at 60 g/ha: 60 g a.i./ha; for inhibition at 30 g/ha: 30 g a.i./ha.
Text: as §1, §2

Assay [3] relates to Eclipta prostrata. The description is as above. The conditions noted are these: 504 h, determined 21 days later, read-out: Inhibition rate of fresh weight, Eclipta prostrata; for inhibition at 60 g/ha: 60 g a.i./ha; for inhibition at 30 g/ha: 30 g a.i./ha.
Text: as §1, §2

For a further assay, the system named is Alopecurus japonicus. The assay can be described thus: Indoor herbicide activity determination, Seed Treatment; pre-emergence (soil spray). Conditions: for Herbicidal activities, Alopecurus japonicus (inhibition rate class): Dosage 240 g a.i./ha. In outline: (§3)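 Herbicide was applied to soil before weed emergence, 24 h after sowing, by tower spraying. Plants grew at constant temperature with illumination, and fresh weight compared with untreated pots gave % inhibition after 21 days.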

The next assay deals with Alopecurus myosuroides. The assay is described as above. The conditions noted are these: Dosage 240 g a.i./ha. In outline:
as §3

The test system of another assay is Eleusine indica. The description is as above. Conditions: for Herbicidal activities, Eleusine indica (inhibition rate class): Dosage 240 g a.i./ha. The gist of the method: as §3
For another assay, the system named is Leptochloa chinensis. Described as above. The conditions noted are these: for Herbicidal activities, Leptochloa chinensis (inhibition rate class): Dosage 240 g a.i./ha. In outline: as §3
The subject of the next assay is Lolium multiflorum. Described as above. Conditions: Dosage 240 g a.i./ha. The gist of the method: as §3
The subject of a further assay is Aegilops tauschii. The assay is described as above. Conditions: 60 g a.i./ha, read-out: Herbicidal activities (inhibition rate) Aegilops tauschii. The gist of the method:
as §3

Assay [4] relates to Cyperus iria. The description is as above. Conditions: 60 g a.i./ha, read-out: Herbicidal activities (inhibition rate) Cyperus iria. In outline:
as §3

The subject of assay [5] is Digitaria sanguinalis. Described as above. Conditions: 60 g a.i./ha, read-out: Herbicidal activities (inhibition rate) Digitaria sanguinalis. In outline: as §3
For assay [6], the system named is Eclipta prostrata. Described as above. The conditions noted are these: 60 g a.i./ha, read-out: Herbicidal activities (inhibition rate) Eclipta prostrata. The gist of the method: as §3

On to `C=CC1(C(=O)N[C@H]2C[C@@H](C(=O)O)C2)CC(c2cc(F)cc(Cl)c2)=NO1` (mixture of isomers) [I-27], for which the results for the inhibition at 60 g/ha in the assay with Cyperus iria [1], in the assay on Digitaria sanguinalis [2] and in the assay with Eclipta prostrata [3] were 80 to 100%, 80 to 100% and 40 to 60%, respectively. For the same molecule, in the assay on Alopecurus japonicus, the “Herbicidal activities, Alopecurus japonicus (inhibition rate class)” value is reported as “A (A indicates that the inhibition rate was greater than or equal to 80% to 100%)”. For the same molecule, the “Herbicidal activities, Alopecurus myosuroides (inhibition rate class)” value with Alopecurus myosuroides is “A (A indicates that the inhibition rate was greater than or equal to 80% to 100%)”. Further, the “Herbicidal activities, Eleusine indica (inhibition rate class)” value with Eleusine indica was “A (A indicates that the inhibition rate was greater than or equal to 80% to 100%)”. Moreover, the “Herbicidal activities, Leptochloa chinensis (inhibition rate class)” value in the assay on Leptochloa chinensis is reported as “A (A indicates that the inhibition rate was greater than or equal to 80% to 100%)”. Also, the “Herbicidal activities, Lolium multiflorum (inhibition rate class)” value in the assay with Lolium multiflorum was “A (A indicates that the inhibition rate was greater than or equal to 80% to 100%)”.
Take `C=CC1(C(=O)N[C@H]2C[C@@H](C(=O)OC)C2)CC(c2cc(F)cc(Cl)c2)=NO1` (mixture of isomers) [I-29]: the inhibition (as a rule, the relative decrease from the control value, in per cent) at 60 g/ha with Cyperus iria [1] was in the range of 80 to 100%; in the assay on Digitaria sanguinalis [2] it was 80 to 100%; in the assay on Eclipta prostrata [3], 40 to 60%. For the same molecule, in the assay on Alopecurus japonicus, the “Herbicidal activities, Alopecurus japonicus (inhibition rate class)” value is “A (A indicates that the inhibition rate was greater than or equal to 80% to 100%)”. Besides, in the assay on Alopecurus myosuroides, the “Herbicidal activities, Alopecurus myosuroides (inhibition rate class)” value is on record as “A (A indicates that the inhibition rate was greater than or equal to 80% to 100%)”. Besides, in the assay on Eleusine indica, the “Herbicidal activities, Eleusine indica (inhibition rate class)” value was “A (A indicates that the inhibition rate was greater than or equal to 80% to 100%)”. Also, in the assay on Leptochloa chinensis, the “Herbicidal activities, Leptochloa chinensis (inhibition rate class)” value is recorded as “A (A indicates that the inhibition rate was greater than or equal to 80% to 100%)”. Also, the “Herbicidal activities, Lolium multiflorum (inhibition rate class)” value in the assay with Lolium multiflorum is reported as “A (A indicates that the inhibition rate was greater than or equal to 80% to 100%)”.
Consider `C=CC1(C(=O)N[C@H]2C[C@@H](C(=O)O)C2)CC(c2cc(Cl)cc(Cl)c2)=NO1` (mixture of isomers) [I-37], for which the inhibition at 60 g/ha fell in the range of 80 to 100% in the assay on Cyperus iria [1], 80 to 100% in the assay with Digitaria sanguinalis [2] and 60 to 80% in the assay on Eclipta prostrata [3]. Moreover, the “Herbicidal activities, Alopecurus japonicus (inhibition rate class)” value in the assay on Alopecurus japonicus was “A (A indicates that the inhibition rate was greater than or equal to 80% to 100%)”. In the assay on Alopecurus myosuroides, the “Herbicidal activities, Alopecurus myosuroides (inhibition rate class)” value was “A (A indicates that the inhibition rate was greater than or equal to 80% to 100%)”. In the assay on Eleusine indica, the “Herbicidal activities, Eleusine indica (inhibition rate class)” value is given as “A (A indicates that the inhibition rate was greater than or equal to 80% to 100%)”. In the assay on Leptochloa chinensis, the “Herbicidal activities, Leptochloa chinensis (inhibition rate class)” value was “A (A indicates that the inhibition rate was greater than or equal to 80% to 100%)”. Besides, the “Herbicidal activities, Lolium multiflorum (inhibition rate class)” value in the assay with Lolium multiflorum is “A (A indicates that the inhibition rate was greater than or equal to 80% to 100%)”.
As for `C=CC1(C(=O)N[C@H]2C[C@@H](C(=O)OC)C2)CC(c2cc(Cl)cc(Cl)c2)=NO1` (mixture of isomers) [I-39], the inhibition at 60 g/ha in the assay with Cyperus iria [1] is 80 to 100%; in the assay on Digitaria sanguinalis [2] it was 80 to 100%; in the assay on Eclipta prostrata [3], 60 to 80%. Moreover, in the assay on Alopecurus japonicus, the “Herbicidal activities, Alopecurus japonicus (inhibition rate class)” value was “A (A indicates that the inhibition rate was greater than or equal to 80% to 100%)”. Besides, in the assay on Alopecurus myosuroides, the “Herbicidal activities, Alopecurus myosuroides (inhibition rate class)” value is listed as “A (A indicates that the inhibition rate was greater than or equal to 80% to 100%)”. The “Herbicidal activities, Eleusine indica (inhibition rate class)” value with Eleusine indica is “A (A indicates that the inhibition rate was greater than or equal to 80% to 100%)”. Also, the “Herbicidal activities, Leptochloa chinensis (inhibition rate class)” value in the assay with Leptochloa chinensis is reported as “A (A indicates that the inhibition rate was greater than or equal to 80% to 100%)”. In the assay on Lolium multiflorum, the “Herbicidal activities, Lolium multiflorum (inhibition rate class)” value was “A (A indicates that the inhibition rate was greater than or equal to 80% to 100%)”.
Turning to `C=CC1(C(=O)N[C@H]2C[C@@H](C(=O)OC)C2)CC(c2cc(Cl)cc(C(F)(F)F)c2)=NO1` (mixture of isomers) [I-55], the inhibition at 60 g/ha with Cyperus iria [1] is 80 to 100%; in the assay on Digitaria sanguinalis [2] it was 60 to 80%; in the assay on Eclipta prostrata [3] it was 60 to 80%. The “Herbicidal activities, Alopecurus japonicus (inhibition rate class)” value with Alopecurus japonicus is listed as “A (A indicates that the inhibition rate was greater than or equal to 80% to 100%)”. Moreover, in the assay on Alopecurus myosuroides, the “Herbicidal activities, Alopecurus myosuroides (inhibition rate class)” value is “A (A indicates that the inhibition rate was greater than or equal to 80% to 100%)”. The “Herbicidal activities, Leptochloa chinensis (inhibition rate class)” value in the assay with Leptochloa chinensis is reported as “A (A indicates that the inhibition rate was greater than or equal to 80% to 100%)”. The “Herbicidal activities, Lolium multiflorum (inhibition rate class)” value in the assay on Lolium multiflorum is “A (A indicates that the inhibition rate was greater than or equal to 80% to 100%)”.
`COC(=O)[C@H]1C[C@@H](NC(=O)C2(C(F)(F)F)CC(c3cc(Cl)cc(C(F)(F)F)c3)=NO2)C1` (relative stereo) [I-247]: the inhibition at 60 g/ha in the assay on Cyperus iria [1] was in the range of 80 to 100%; in the assay on Digitaria sanguinalis [2] it was 80 to 100%; in the assay on Eclipta prostrata [3] it was 60 to 80%. In addition, in the assay with Alopecurus japonicus, the “Herbicidal activities, Alopecurus japonicus (inhibition rate class)” value is “A (A indicates that the inhibition rate was greater than or equal to 80% to 100%)”. Besides, the “Herbicidal activities, Alopecurus myosuroides (inhibition rate class)” value with Alopecurus myosuroides is on record as “A (A indicates that the inhibition rate was greater than or equal to 80% to 100%)”. For the same molecule, the “Herbicidal activities, Leptochloa chinensis (inhibition rate class)” value with Leptochloa chinensis was “A (A indicates that the inhibition rate was greater than or equal to 80% to 100%)”. The “Herbicidal activities, Lolium multiflorum (inhibition rate class)” value with Lolium multiflorum is on record as “A (A indicates that the inhibition rate was greater than or equal to 80% to 100%)”.
`COC(=O)[C@H]1C[C@@H](NC(=O)C2(CF)CC(c3cc(F)cc(F)c3)=NO2)C1` (relative stereo) [I-310]: the inhibition at 60 g/ha in the assay on Cyperus iria [1] was 80 to 100%; in the assay on Digitaria sanguinalis [2], 80 to 100%; in the assay with Eclipta prostrata [3], 60 to 80%. Further, the “Herbicidal activities, Alopecurus japonicus (inhibition rate class)” value in the assay on Alopecurus japonicus is given as “A (A indicates that the inhibition rate was greater than or equal to 80% to 100%)”. Moreover, in the assay on Alopecurus myosuroides, the “Herbicidal activities, Alopecurus myosuroides (inhibition rate class)” value is “A (A indicates that the inhibition rate was greater than or equal to 80% to 100%)”. Also, the “Herbicidal activities, Leptochloa chinensis (inhibition rate class)” value in the assay on Leptochloa chinensis is given as “A (A indicates that the inhibition rate was greater than or equal to 80% to 100%)”. The “Herbicidal activities, Lolium multiflorum (inhibition rate class)” value in the assay on Lolium multiflorum is on record as “A (A indicates that the inhibition rate was greater than or equal to 80% to 100%)”.
On to `C=C[C@]1(C(=O)N[C@H]2C=C[C@@H](C(=O)O)C2)CC(c2cc(F)cc(F)c2)=NO1` [CK1, reference compound], for which the inhibition at 30 g/ha is 60 to 80% with Cyperus iria [1], 60 to 80% in the assay on Digitaria sanguinalis [2] and less than 20% in the assay on Eclipta prostrata [3].
With `C=C[C@]1(C(=O)N[C@H]2C=C[C@@H](C(=O)OC)C2)CC(c2cc(F)cc(F)c2)=NO1` [CK2, reference compound], the inhibition at 30 g/ha fell in the range of 60 to 80% in the assay on Cyperus iria [1], 60 to 80% in the assay with Digitaria sanguinalis [2] and 20 to 40% in the assay on Eclipta prostrata [3].
On to `C=C[C@]1(C(=O)N[C@H]2C=C[C@@H](C(=O)OC)C2)CC(c2cc(Cl)cc(C(F)(F)F)c2)=NO1` [I-477], for which the inhibition at 30 g/ha in the assay on Cyperus iria [1] fell in the range of 80 to 100%; in the assay with Digitaria sanguinalis [2], 60 to 80%. Moreover, the inhibition at 60 g/ha in the assay with Aegilops tauschii is 80 to 100%; with Cyperus iria [4], 60 to 80%; in the assay on Digitaria sanguinalis [5], 60 to 80%; with Eclipta prostrata [6], 40 to 60%. Also, the “Herbicidal activity (inhibition rate class), Alopecurus japonicus” value with Alopecurus japonicus (Dosage 120 g a.i./ha) is “B (B indicates that the inhibition rate was greater than or equal to 60% to less than 80%)”. The “Herbicidal activity (inhibition rate class), Eleusine indica” value in the assay with Eleusine indica (Dosage 120 g a.i./ha) is recorded as “A (A indicates that the inhibition rate was greater than or equal to 80% to 100%)”. In the assay on Leptochloa chinensis (Dosage 120 g a.i./ha), the “Herbicidal activity (inhibition rate class), Leptochloa chinensis” value is “A (A indicates that the inhibition rate was greater than or equal to 80% to 100%)”.
